Activity calls are given as the source filed them.
Key:
HEK293 [1] = test: cells; format: functional, cell-based; conditions: Homo sapiens
[2] = target: T1, Long-chain-fatty-acid--AMP ligase FadD28 (Mycobacterium tuberculosis, UniProt P9WQ59); test: Fluorescence polarization aasay to screen for inhibitors that compete for the binding of FadD28 to a bisubstrate Measured in Biochemical System Using Plate Reader - 2147-01_Inhibitor_Dose_CherryPick_Activity.; format: functional, Mycobacterium tuberculosis H37Rv
T1 sequence (P9WQ59 whole entry): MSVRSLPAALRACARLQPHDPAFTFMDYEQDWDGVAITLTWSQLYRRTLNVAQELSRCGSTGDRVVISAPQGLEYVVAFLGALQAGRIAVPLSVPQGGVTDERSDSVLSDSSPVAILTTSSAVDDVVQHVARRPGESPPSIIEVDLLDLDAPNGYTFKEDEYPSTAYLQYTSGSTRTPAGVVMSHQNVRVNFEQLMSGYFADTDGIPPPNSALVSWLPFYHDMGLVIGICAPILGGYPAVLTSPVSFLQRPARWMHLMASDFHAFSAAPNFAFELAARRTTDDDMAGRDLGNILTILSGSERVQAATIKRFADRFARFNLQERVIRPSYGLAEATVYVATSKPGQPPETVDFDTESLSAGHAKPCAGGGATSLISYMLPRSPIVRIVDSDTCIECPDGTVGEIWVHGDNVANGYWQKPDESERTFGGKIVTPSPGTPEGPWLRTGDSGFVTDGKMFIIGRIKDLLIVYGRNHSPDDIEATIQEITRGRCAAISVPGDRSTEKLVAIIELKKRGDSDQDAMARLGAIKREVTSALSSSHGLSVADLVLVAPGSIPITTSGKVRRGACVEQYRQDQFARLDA

[3] = target: Nucleotide-binding oligomerization domain-containing protein 2 (Homo sapiens, UniProt Q9HC29); test: PubChem AID 2334; format: functional
[4] = target: Nucleotide-binding oligomerization domain-containing protein 1 (Homo sapiens, UniProt Q9Y239); test: NOD1 signaling inhibitors, SAR follow-up, revised (AID 2333); format: functional
HEK293 [5] = test: NOD2 signaling inhibitors in MDP-stimulated cells, cell-based, uHTS, luminescence (AID 2001); format: functional; conditions: Homo sapiens
Tumor necrosis factor = Tumor necrosis factor (Homo sapiens, UniProt P01375); test: TNFa-triggered NF-kB activation inhibitors, SAR follow-up, cell-based, revised (AID 2337); format: functional
HEK293 [6] = test: NOD1 signaling inhibitors, primary screen, cell-based, luminescence, uHTS (AID 1578); format: functional; conditions: Homo sapiens
HEK293 [7] = test: cells; conditions: Homo sapiens
HEK293 [8] = test: cells; format: functional, cell-based; conditions: Homo sapiens; remark: listed apart in the source
A-375 [9] = test: MITF: Counter assay: A375 proliferation Measured in Cell-Based System Using Plate Reader - 2084-03_Inhibitor_Dose_DryPowder_Activity. [Related pubchem assays (depositor defined):AID488944]; format: functional; conditions: Homo sapiens
[10] = target: Peroxisome proliferator-activated receptor gamma/Nuclear receptor coactivator 2 (Homo sapiens, UniProt P37231); format: functional;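 further: agonist potency for raising coactivator recruitment to the receptor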
[11] = target: Peroxisome proliferator-activated receptor gamma/Nuclear receptor coactivator 3 (Homo sapiens, UniProt P37231); format: functional;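 further: agonist potency for raising coactivator recruitment to the receptor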
[12] = target: Peroxisome proliferator-activated receptor gamma/Nuclear receptor coactivator 1 (Homo sapiens, UniProt P37231); format: functional;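 further: agonist potency as compounds enhance coactivator SRC-1 recruitment to PPARgamma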
A-375 [13] = test: A375 melanoma cell viability reduction, dose response, counter-screen for MITF modulator project, cherry-pick samples, set 2 (AID 540335); format: functional, cell-based; conditions: Homo sapiens
BJ [14] = test: cytotoxicity toward BJ-TERT-LT-ST fibroblasts, dose response, cell-based, RAS-independent, luminescence (AID 1935); format: functional; conditions: Homo sapiens;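 further: BJ fibroblasts immortalized with TERT plus LT and ST oncogenes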
BJ [15] = test: cells; format: functional, cell-based; conditions: Homo sapiens
BJ [16] = test: cytotoxicity toward BJ-TERT fibroblasts, dose response, cell-based, RAS-independent, luminescence (AID 1933); format: functional; conditions: Homo sapiens
[17] = target: Intestinal-type alkaline phosphatase (Homo sapiens, UniProt P09923); test: inhibition of human intestinal alkaline phosphatase – biochemical, dose response (AID 488876); format: functional
[18] = target: T2, Alkaline phosphatase, tissue-nonspecific isozyme (Homo sapiens, UniProt P05186); test: TNAP enzyme inhibition by screening hits, dose response, selectivity assay for mouse IAP inhibitor project, biochemical, human TNAP, uHTS hits (AID 488906); format: functional
T2 sequence (P05186 whole entry): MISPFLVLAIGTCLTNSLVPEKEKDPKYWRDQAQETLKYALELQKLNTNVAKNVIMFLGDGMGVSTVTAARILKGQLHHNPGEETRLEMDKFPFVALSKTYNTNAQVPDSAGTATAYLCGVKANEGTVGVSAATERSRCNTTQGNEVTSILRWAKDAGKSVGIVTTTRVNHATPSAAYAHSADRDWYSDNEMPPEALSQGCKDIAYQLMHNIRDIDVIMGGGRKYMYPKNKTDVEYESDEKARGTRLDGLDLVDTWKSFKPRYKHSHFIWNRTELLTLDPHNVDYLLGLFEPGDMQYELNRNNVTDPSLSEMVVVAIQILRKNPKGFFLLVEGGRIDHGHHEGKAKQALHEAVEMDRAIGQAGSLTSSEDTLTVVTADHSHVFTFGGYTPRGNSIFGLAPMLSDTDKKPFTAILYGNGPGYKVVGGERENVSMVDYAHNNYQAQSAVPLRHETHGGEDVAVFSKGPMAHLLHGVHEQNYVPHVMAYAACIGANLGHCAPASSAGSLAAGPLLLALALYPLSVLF

[19] = target: Intestinal-type alkaline phosphatase (Mus musculus, UniProt P24822); test: PubChem AID 488785; format: functional
[20] = cytotoxicity toward DRD oncogenic fibroblasts, dose response, cell-based, non-viral oncogenic, luminescence (AID 1934); format: functional; conditions: Homo sapiens
Phospholipase D1 = Phospholipase D1 (Homo sapiens, UniProt Q13393); test: PLD1 purified enzyme concentration response. [Related pubchem assays (depositor defined):AID588854]; format: functional
[21] = cytotoxicity in HMLE control line with eGFP shRNA, dose response, counter-screen for HMLE_sh_ECad selective toxicity project, cell-based, HMLE_sh_eGFP, luminescence (AID 463074); format: functional, Homo sapiens;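 further: HMLE human mammary epithelial cells expressing control shRNA against eGFP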
[22] = Luminescence Cell-Based Dose Retest to Confirm Inhibitors of Cancer Stem Cells. [Related pubchem assays (depositor defined):AID2717, AID2721]; format: functional; conditions: Homo sapiens
Cytochrome P450 2C9 = Cytochrome P450 2C9 (Homo sapiens, UniProt P11712); conditions: Potency
[23] = target: Guanyl-specific ribonuclease T1 (Aspergillus oryzae (strain ATCC 42149 / RIB 40), UniProt P00651); test: RNase T1 inhibitors, dose response, counter-screen for TPT1 inhibitor project, biochemical, fluorescence polarization, 1536-well (AID 2167)
[24] = target: T3, Dual specificity protein phosphatase 3 (Homo sapiens, UniProt P51452); test: VHR1 phosphatase inhibitors, primary screen, biochemical, absorbance, uHTS (AID 1654)
[25] = target: T4, Heat shock 70 kDa protein 1A (Homo sapiens, UniProt P0DMV8); test: Hsp70 inhibitors, SAR follow-up, biochemical, fluorescence polarization (AID 1072)
[26] = target: T4, Heat shock 70 kDa protein 1A; test: Hsp70 inhibitors, probe displacement, primary screen, biochemical, fluorescence polarization (AID 583)
[27] = target: T4, Heat shock 70 kDa protein 1A; test: Hsp70 inhibitors, biochemical, TR-FRET (AID 786)
[28] = target: Likely tRNA 2'-phosphotransferase (Candida albicans (strain SC5314 / ATCC MYA-2876) (Yeast), UniProt Q5A7N4); test: TPT1 tRNA phosphotransferase inhibitors, dose response, biochemical, fluorescence polarization (AID 2160)
Leucine aminopeptidase = target: T5, Leucine aminopeptidase (Plasmodium falciparum 3D7, UniProt Q8IL11); test: P. falciparum M17LAP inhibitors, primary screen, biochemical, fluorogenic H-Leu-NHMec substrate, 1536-well (AID 1619); format: functional
T5 sequence (Q8IL11 whole entry): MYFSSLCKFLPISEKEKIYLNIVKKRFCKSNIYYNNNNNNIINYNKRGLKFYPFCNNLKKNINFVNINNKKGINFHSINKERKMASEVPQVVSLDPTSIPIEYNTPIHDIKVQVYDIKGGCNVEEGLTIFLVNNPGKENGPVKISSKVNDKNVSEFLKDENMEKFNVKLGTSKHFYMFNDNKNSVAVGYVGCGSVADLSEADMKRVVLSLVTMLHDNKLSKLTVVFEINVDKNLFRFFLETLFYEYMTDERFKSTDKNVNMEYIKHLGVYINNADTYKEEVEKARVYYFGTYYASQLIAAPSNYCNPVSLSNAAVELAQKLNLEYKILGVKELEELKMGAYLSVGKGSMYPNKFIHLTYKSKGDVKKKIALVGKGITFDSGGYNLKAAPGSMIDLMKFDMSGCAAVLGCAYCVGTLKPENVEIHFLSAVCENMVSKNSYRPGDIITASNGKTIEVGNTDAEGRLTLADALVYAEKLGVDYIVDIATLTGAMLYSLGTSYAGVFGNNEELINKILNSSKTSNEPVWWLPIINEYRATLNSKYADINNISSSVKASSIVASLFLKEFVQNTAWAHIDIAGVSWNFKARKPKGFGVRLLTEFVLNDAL

[29] = target: Mothers against decapentaplegic homolog 3 (Homo sapiens, UniProt P84022); test: SMAD3 transcription factor inhibitors, dose response (AID 715); format: functional
[30] = target: T6, Dual specificity protein phosphatase 6 (Rattus norvegicus, UniProt Q64346); test: MKP-3 phosphatase inhibitors, primary screen, biochemical, rat enzyme, in vitro (AID 425)
T6 sequence (Q64346 whole entry): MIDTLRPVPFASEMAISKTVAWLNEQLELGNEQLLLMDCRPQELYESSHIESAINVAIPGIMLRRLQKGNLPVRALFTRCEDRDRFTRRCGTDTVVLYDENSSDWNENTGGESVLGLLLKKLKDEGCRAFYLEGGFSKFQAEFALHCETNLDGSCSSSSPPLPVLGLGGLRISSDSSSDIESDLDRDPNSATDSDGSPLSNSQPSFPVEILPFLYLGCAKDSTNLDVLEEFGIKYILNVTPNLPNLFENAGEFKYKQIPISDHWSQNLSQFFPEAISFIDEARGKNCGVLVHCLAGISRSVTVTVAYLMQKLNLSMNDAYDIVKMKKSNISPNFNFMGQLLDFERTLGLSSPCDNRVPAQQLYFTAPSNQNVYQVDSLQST

[31] = target: T3, Dual specificity protein phosphatase 3; test: VHR1 phosphatase inhibitors, biochemical (AID 1878)
[32] = target: Induced myeloid leukemia cell differentiation protein Mcl-1 (Homo sapiens, UniProt Q07820); format: functional
[33] = target: Eukaryotic translation initiation factor 4E (Mus musculus, UniProt P63073); test: eIF4E–eIF4G protein interaction inhibitors, dose response, biochemical, TR-FRET (AID 855); format: functional;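 further: potency for disrupting eIF4E binding to eIF4GI seen as loss of FRET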
Chain of Eukaryotic translation initiation factor 4E (P63073 whole entry): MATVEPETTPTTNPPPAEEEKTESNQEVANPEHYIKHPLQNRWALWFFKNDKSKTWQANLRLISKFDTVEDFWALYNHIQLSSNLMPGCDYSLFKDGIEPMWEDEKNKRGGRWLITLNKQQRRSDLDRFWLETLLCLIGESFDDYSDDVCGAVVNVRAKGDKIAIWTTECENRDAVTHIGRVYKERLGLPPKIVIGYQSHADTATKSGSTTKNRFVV

T4 sequence (P0DMV8 whole entry): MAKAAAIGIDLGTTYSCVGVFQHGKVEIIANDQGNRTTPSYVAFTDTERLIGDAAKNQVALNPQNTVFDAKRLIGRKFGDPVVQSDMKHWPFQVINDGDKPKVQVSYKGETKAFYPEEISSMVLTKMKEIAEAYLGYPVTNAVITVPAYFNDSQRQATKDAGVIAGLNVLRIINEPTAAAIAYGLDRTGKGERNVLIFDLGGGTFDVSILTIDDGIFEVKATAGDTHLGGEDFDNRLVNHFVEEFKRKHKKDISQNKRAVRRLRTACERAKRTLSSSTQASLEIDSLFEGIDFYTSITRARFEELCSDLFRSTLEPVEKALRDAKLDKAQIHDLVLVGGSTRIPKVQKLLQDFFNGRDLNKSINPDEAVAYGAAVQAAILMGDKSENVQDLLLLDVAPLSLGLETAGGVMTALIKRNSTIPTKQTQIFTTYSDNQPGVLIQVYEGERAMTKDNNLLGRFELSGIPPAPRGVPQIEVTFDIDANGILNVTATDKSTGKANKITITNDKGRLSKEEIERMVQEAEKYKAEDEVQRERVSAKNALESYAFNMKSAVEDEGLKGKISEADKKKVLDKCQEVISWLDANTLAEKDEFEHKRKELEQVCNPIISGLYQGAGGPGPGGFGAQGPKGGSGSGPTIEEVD
T3 sequence (P51452 whole entry): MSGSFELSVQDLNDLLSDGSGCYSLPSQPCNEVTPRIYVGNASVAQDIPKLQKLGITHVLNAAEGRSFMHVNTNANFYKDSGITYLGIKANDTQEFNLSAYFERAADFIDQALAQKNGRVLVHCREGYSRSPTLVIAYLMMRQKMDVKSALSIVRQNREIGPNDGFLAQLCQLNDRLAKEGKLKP
Chain of Guanyl-specific ribonuclease T1 (P00651 whole entry): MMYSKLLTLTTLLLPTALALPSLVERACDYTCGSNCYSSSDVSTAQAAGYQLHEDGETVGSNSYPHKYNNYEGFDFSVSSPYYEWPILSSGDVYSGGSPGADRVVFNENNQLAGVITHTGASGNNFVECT
Chain of Nucleotide-binding oligomerization domain-containing protein 1 (Q9Y239 whole entry, the tested form may be a part): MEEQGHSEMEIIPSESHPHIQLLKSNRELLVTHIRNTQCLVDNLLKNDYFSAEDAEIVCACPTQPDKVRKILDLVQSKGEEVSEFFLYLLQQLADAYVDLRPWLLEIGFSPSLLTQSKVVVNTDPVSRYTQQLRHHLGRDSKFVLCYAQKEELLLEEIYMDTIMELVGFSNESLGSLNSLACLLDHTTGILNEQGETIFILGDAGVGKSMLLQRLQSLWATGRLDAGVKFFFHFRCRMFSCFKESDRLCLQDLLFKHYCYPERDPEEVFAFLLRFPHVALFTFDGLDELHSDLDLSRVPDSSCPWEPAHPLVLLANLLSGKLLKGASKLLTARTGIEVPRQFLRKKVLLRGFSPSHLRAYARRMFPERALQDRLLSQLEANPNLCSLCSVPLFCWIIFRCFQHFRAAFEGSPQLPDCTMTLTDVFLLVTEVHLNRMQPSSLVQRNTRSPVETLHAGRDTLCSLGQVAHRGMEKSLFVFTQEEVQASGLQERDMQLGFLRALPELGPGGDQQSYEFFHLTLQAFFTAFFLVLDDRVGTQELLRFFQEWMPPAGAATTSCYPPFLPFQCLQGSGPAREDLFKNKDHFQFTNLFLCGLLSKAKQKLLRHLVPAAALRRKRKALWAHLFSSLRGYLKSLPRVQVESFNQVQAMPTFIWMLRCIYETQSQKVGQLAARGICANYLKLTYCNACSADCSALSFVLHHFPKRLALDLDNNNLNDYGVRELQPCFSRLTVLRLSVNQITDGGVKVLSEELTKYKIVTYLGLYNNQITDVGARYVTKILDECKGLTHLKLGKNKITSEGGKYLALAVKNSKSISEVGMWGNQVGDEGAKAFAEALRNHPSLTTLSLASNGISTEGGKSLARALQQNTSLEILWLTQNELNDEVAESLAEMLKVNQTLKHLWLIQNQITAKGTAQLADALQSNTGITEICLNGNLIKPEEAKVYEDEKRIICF
Chain of Intestinal-type alkaline phosphatase (Homo sapiens, UniProt P09923) (P09923 whole entry): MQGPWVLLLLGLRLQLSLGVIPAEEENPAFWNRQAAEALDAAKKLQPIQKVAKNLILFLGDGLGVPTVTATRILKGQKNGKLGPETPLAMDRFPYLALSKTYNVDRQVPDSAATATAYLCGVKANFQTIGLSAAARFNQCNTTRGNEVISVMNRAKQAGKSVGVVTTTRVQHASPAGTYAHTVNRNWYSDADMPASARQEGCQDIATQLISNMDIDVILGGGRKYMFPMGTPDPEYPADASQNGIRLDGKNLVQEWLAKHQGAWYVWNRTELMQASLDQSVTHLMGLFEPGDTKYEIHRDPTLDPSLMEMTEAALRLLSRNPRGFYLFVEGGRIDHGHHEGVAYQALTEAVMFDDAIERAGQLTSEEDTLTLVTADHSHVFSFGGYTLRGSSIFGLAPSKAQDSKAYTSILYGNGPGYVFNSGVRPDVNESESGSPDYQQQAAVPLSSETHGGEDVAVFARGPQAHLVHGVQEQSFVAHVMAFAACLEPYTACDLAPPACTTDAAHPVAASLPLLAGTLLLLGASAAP
Chain of Likely tRNA 2'-phosphotransferase (Q5A7N4 whole entry): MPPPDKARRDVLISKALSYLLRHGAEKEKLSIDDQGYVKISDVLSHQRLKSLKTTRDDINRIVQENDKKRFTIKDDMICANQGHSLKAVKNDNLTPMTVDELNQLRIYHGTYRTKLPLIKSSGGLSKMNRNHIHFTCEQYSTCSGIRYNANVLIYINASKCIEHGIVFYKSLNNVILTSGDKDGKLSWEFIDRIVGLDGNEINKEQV
Chain of Peroxisome proliferator-activated receptor gamma/Nuclear receptor coactivator 1 (P37231 whole entry): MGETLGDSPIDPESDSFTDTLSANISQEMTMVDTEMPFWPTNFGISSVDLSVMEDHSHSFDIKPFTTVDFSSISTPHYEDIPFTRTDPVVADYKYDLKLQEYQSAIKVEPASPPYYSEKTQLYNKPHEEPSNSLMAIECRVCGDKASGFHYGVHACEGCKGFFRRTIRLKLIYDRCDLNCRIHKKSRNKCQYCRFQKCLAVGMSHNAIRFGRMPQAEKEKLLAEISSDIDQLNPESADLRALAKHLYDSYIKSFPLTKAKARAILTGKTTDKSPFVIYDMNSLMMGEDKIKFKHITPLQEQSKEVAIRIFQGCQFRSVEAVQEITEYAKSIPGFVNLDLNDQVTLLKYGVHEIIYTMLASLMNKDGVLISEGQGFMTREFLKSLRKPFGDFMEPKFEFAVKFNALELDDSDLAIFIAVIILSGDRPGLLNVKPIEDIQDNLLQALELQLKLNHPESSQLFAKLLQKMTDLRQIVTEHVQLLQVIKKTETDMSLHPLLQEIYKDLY
Chain of Peroxisome proliferator-activated receptor gamma/Nuclear receptor coactivator 1 (Q15788 whole entry, further chain): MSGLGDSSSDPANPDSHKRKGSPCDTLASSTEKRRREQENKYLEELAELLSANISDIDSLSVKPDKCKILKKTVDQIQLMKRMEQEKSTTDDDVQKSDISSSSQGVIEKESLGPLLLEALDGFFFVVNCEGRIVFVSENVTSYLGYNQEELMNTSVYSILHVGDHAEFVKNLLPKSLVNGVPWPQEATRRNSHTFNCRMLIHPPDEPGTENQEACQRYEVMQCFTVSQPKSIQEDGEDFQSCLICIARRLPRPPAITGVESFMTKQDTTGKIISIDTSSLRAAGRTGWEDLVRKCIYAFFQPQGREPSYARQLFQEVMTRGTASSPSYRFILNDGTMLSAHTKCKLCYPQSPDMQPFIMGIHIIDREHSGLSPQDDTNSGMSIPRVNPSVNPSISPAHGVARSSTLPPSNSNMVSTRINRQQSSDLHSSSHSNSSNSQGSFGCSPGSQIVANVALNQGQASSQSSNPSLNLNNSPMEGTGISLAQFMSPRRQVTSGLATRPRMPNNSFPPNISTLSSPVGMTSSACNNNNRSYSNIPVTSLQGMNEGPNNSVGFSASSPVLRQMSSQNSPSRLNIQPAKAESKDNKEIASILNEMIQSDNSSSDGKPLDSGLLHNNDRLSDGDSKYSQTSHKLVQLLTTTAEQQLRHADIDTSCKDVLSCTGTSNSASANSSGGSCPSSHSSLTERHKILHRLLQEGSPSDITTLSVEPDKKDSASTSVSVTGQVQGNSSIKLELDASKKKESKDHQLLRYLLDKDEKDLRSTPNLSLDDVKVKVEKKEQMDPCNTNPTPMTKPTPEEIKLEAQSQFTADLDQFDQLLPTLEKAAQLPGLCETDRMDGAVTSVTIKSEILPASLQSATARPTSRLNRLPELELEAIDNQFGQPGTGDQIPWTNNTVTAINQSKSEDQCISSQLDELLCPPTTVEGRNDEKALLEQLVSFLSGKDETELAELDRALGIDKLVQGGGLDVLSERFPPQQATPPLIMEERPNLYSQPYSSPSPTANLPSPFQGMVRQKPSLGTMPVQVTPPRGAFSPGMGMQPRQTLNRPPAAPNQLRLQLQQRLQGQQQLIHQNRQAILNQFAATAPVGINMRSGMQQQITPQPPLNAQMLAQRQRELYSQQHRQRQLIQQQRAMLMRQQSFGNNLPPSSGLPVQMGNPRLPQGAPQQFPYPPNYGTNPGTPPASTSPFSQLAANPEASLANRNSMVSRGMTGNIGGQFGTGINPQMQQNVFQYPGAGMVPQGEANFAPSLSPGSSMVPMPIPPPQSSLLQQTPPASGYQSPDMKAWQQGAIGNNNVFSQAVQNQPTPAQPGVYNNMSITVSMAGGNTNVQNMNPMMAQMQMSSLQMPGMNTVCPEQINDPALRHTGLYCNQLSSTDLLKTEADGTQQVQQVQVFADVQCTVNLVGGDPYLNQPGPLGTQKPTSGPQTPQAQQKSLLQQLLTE

For `COc1cc(/C=C2/C(=O)NN(c3cccc(Cl)c3)C2=O)cc(Br)c1O`, the IC50 (HEK293 [1]) was > 20 µM (inactive), the AC50 [2] was > 100 µM (inactive) and the IC50 [3] was > 20 µM (inactive). For the same molecule, the IC50 [4] was 3.49 µM (active), the IC50 (HEK293 [5]) was > 20 µM (inactive) and the IC50 (Tumor necrosis factor) was > 20 µM (inactive). For the same molecule, the EC50 (HEK293 [6]) was 8.57 µM (active), the IC50 (HEK293 [7]) was > 20 µM (inactive) and the IC50 (HEK293 [8]) was > 20 µM (inactive).
For `CC(C)OC(=O)CSc1nc2cc3c(cc2cc1C#N)OCO3`, the AC50 (A-375 [9]) was > 35 µM (active), the EC50 [10] was 10.2 µM (not active) and the EC50 [11] was 18.3 µM (not active). For the same molecule, the EC50 [12] was 11.9 µM (not active) and the AC50 (A-375 [13]) was > 35 µM (active).
In the case of `CC(C)=CCc1c(O)c(CC=C(C)C)c2c(c1O)-c1cc(O)c(O)cc1CC2`, the EC50 (BJ [14]) is reported as > 75 µM (inconclusive), the EC50 (BJ [15]) is reported as > 150 µM (not active) and the EC50 (BJ [16]) is reported as 8.58 µM (inconclusive). For the same molecule, the IC50 [17] was > 100 µM (inactive), the IC50 [18] was > 100 µM (inactive) and the IC50 [19] was 5.45 µM (active). The EC50 [20] was 14.7 µM (active).
In the case of `O=C(NCCN1CCC2(CC1)C(=O)NCN2c1ccccc1)c1cnc2ccccc2c1`, the IC50 (Phospholipase D1) is reported as 20 µM (active).
With `COc1ccc(C(=O)NNc2ccccc2)cc1` the AC50 [21] was 21.4 µM (active) and the AC50 [22] was 9.98 µM (active).
In the case of `O=c1oc2c(O)c(O)cc3c(=O)oc4c(O)c(O)cc1c4c23` [ELLAGIC ACID], the AC50 (Cytochrome P450 2C9) is reported as 39.8 µM (inconclusive), the IC50 [23] is reported as > 55.7 µM (not active) and the IC50 [24] is reported as < 980 nM (inactive). For the same molecule, the IC50 [25] was > 100 µM (not active), the IC50 [26] was 760 nM (active) and the IC50 [27] was > 100 µM (not active). For the same molecule, the IC50 [28] was 541 nM (active), the IC50 (Leucine aminopeptidase) was 138 µM (active) and the IC50 [29] was 142 nM (active). For the same molecule, the IC50 [30] was 39.5 µM (active), the IC50 [31] was < 1.23 µM (inactive) and the IC50 [32] was > 54 µM (active). The IC50 [33] was 47.7 µM (inactive).
